Structures are written as SMILES. Several values for one entry are separate records, joined by “and”; a condition that tells them apart may be missing. Identical values can stand only once.

This is an account of results in PMC9500072, “Topical application of an irreversible small molecule inhibitor of lysyl oxidases ameliorates skin scarring and fibrosis” (Nature Communications, 2022).

The target in one data set is Muscarinic M1 (Homo sapiens, UniProt P11229). Put plainly: Eurofins panel 252610. It is filed as binding.
Chain of Muscarinic M1 (P11229 whole entry): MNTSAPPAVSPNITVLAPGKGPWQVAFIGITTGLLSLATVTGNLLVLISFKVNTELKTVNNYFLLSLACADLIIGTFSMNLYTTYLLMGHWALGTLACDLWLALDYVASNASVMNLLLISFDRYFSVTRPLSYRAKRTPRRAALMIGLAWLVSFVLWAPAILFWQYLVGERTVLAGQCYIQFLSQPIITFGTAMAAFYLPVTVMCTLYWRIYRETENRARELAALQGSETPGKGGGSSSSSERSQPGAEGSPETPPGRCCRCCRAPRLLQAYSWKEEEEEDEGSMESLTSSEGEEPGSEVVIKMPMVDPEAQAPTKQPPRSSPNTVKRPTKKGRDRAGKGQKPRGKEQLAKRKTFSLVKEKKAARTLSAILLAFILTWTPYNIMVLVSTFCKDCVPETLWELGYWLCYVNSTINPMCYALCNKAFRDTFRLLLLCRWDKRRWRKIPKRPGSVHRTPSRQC
For the next data set, the target named is Neuropeptide Y Y2 (Homo sapiens, UniProt P49146). The experiment in a line: Eurofins panel 257110. It is filed as binding.
Chain of Neuropeptide Y Y2 (P49146 whole entry): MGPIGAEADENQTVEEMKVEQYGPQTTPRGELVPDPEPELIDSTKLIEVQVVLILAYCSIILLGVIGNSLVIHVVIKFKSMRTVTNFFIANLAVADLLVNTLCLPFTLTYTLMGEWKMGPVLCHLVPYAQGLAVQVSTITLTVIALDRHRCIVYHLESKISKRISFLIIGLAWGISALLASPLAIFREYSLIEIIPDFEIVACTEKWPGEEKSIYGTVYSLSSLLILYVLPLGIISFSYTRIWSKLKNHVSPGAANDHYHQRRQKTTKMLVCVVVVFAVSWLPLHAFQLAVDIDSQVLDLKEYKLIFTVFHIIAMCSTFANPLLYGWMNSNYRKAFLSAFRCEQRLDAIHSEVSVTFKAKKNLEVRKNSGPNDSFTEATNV
A further data set addresses Cannabinoid CB1 (Homo sapiens, UniProt P21554). The experiment in a line: Eurofins panel 217030. It is filed as binding.
The target of data set [1] is Serotonin (5-Hydroxytryptamine) 5-HT3 (Homo sapiens, UniProt P46098). Put plainly: Eurofins panel 271910. It is filed as binding.
Chain of Serotonin (5-Hydroxytryptamine) 5-HT3 (P46098 24-478): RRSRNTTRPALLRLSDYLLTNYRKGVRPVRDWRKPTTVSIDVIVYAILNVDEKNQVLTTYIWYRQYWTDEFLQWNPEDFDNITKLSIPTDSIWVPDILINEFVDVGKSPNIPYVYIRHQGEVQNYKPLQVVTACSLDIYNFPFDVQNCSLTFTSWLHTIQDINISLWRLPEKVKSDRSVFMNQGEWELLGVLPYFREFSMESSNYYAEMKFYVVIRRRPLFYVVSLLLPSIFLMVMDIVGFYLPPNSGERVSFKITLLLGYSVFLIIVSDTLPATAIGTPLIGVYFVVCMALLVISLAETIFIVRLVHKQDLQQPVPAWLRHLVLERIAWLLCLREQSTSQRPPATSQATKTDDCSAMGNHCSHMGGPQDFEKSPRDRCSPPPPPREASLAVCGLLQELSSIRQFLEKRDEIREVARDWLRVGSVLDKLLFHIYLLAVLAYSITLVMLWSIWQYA
The target of data set [2] is Transporter, Dopamine (DAT) (Homo sapiens, UniProt Q01959). Put plainly: Eurofins panel 220320. It is filed as binding.
Chain of Transporter, Dopamine (DAT) (Q01959 whole entry): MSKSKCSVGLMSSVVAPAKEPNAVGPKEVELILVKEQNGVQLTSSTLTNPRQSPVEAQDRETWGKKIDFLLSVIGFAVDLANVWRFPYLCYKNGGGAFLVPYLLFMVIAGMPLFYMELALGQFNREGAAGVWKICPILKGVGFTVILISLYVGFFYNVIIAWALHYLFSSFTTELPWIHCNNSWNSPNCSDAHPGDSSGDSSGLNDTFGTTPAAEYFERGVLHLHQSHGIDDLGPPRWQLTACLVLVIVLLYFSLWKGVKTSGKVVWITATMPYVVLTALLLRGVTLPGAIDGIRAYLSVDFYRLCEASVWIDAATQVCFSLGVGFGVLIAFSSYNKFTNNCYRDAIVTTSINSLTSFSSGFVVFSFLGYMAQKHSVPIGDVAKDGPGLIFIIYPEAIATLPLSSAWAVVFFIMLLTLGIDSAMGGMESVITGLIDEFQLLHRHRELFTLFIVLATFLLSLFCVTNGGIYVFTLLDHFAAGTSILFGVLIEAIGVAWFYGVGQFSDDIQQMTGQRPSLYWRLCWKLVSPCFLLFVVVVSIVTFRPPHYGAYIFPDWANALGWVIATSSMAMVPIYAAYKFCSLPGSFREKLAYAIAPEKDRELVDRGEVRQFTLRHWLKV
A further data set deals with Opiate µ(OP3, MOP) (Homo sapiens, UniProt P35372). The experiment in a line: Eurofins panel 260410. It is filed as binding.
Chain of Opiate µ(OP3, MOP) (P35372 whole entry): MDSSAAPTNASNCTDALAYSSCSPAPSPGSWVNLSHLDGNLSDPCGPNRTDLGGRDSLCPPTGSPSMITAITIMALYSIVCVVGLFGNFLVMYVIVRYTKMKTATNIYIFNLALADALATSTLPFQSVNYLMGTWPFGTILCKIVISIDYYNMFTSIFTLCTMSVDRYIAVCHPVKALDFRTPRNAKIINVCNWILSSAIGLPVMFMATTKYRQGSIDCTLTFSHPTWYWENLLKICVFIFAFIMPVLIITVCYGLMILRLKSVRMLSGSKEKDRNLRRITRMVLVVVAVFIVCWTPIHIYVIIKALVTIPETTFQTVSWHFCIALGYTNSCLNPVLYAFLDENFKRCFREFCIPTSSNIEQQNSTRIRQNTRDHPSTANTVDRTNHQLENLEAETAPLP
The subject of the next data set is keratinocytes. Put plainly: RNASeq transcriptome analysis, keratinocytes. The note with it: 24 hrs of treatment. It is filed as cell-based, human.
Data set [3] concerns the target Serotonin (5-Hydroxytryptamine) 5-HT1A (Homo sapiens, UniProt P08908). Put plainly: Eurofins panel 271110. It is filed as binding.
Data set [4] deals with bleomycin-induced skin fibrosis. The experiment in a line: Bleomycin-induced skin fibrosis in mice. It is filed as in vivo, C57BL/6 mice. Also noted: Skin LOX activity: scale not given here. The procedure:
With a pharmacokinetic and pharmacodynamic profile supportive of the potential as a potent topical anti-fibrotic treatment, we next moved to evaluate the in vivo efficacy of PXS-6302. Intradermal injections of bleomycin on alternate days for three weeks induces fibrosis[21],[22]. […] In this model, starting from Day 3 and continuing until Day 20, bleomycin-dosed mice (0.1U, alternate days), were treated once daily topically with 0% (vehicle) or 1.5% PXS-6302 oil in water cream (2 ×100 μL applications at a 10-min interval). […] As bleomycin also stimulates the expression of degrading enzymes such as matrix metalloproteases, the significant drop in hydroxyproline and immature crosslinks could be related to both the reduced production as well as the accelerated degradation of these matrix proteins.
Cell pellets or isolated tissue samples were completely hydrolyzed in 1.5 mL 6 M hydrochloric acid for 24 h at 105 °C. After complete hydrolysis, samples were dried using a vacuum dryer and reconstituted using 200 µL MilliQ water. The sample clean-up was performed using solid-phase extraction method which uses C18 and SCX solid-phase extraction cartridges for sample purification. The samples were run on UPLC-MS-MS (Mass Spectrometer: Thermo Scientific TSQ Endura Triple quadrupole, UPLC: Thermo Scientific Dionex UltiMate 3000) using Agilent RRHD SB-C18,2.1x50mm,1.8um analytical column and solvent A: 10 mM ammonium formate, 0.1% formic acid, 0.1% HFBA in H2O and solvent B: 10 mM ammonium formate, 0.1% formic acid, 0.1% HFBA in MeOH and analyzed as previously described. Limits of detection are listed in Supplementary Table S4.
8–10-week old C57BL/6 mice (n = 10 each group) were used to induce skin fibrosis. Bleomycin (Bleomycin sulfate from Streptomyces verticillicus, Euroasia) dry powder 1.5 IU/mg was reconstituted in saline at 2 IU/ml concentration. Starting on day 0 and continuing on alternate days thereafter, animals received subcutaneous injection of Bleomycin (0.1 IU in 50 µL volume) and/or saline on the right flank. For each animal, each dose was injected at a single site. The injections were continued for 20 days throughout the study. Starting from day three, vehicle cream or vehicle plus drug cream were applied topically once a daily treatment to a 2 cm × 2 cm area on the right dorsal flank of the animal for 20 days. On Day 21, all animals were euthanized and the skin tissue was collected for further histopathological analysis. The skin tissue was fixed in 4% PFA and sectioned skin was stained with Masson’s Trichrome, Collagen I and LOX and used to assess dermal fibrosis. Masson’s Trichrome was used to assess fibrotic index. Collagen Stain was subjectively scored for intensity as compared to control tissue. LOX Stain was subjectively scored as stain accumulation compared to control tissue. All images were assessed by assessors blinded to the treatment group. Composite skin/immunohistochemistry scoring tables used are in the Supplementary Information (Supplementary Tables S5, S6).

The next data set has as its system Purinergic P2X. The experiment in a line: Eurofins panel 268700. The note with it: 10 µM. It is filed as binding, rabbit.
For the next data set, the target named is Muscarinic M3 (Homo sapiens, UniProt P20309). Put plainly: Eurofins panel 252810. It is filed as binding.
Chain of Muscarinic M3 (P20309 whole entry): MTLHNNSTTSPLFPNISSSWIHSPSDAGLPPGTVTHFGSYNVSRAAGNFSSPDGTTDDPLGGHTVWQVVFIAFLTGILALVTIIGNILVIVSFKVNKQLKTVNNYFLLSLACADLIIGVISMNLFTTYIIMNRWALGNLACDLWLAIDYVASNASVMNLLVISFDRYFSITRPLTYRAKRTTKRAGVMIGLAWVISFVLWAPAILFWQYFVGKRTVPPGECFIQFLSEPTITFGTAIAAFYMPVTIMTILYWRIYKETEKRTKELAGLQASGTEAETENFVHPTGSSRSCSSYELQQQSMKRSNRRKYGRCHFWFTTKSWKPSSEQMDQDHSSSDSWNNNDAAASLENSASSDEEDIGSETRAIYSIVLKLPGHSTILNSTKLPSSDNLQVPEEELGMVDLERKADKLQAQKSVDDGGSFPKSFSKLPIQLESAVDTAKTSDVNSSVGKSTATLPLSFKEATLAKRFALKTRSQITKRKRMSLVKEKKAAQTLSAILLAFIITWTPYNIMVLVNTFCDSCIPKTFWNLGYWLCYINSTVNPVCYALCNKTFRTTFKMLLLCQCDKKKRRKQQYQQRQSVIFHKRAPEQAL
The subject of data set [5] is full-thickness excision injury scar. The experiment in a line: Porcine excision injury model. It is filed as in vivo, pigs.
The next data set addresses Adrenergic α1A (Rattus norvegicus, UniProt P43140). Put plainly: Eurofins panel 203100. It is filed as binding.
The next data set can be described thus: PAMPA permeability. It is filed as in vitro ADME. Background: The PAMPA barrier holds no transporters, so it reflects passive diffusion.
A further data set concerns the target Cyclooxygenase COX-2 (Homo sapiens, UniProt P35354). Put plainly: Eurofins panel 118010. It is filed as biochemical.
[6] abbreviates: […] cream topically once daily, Day 3 to Day 20.

Chain of Serotonin (5-Hydroxytryptamine) 5-HT1A (P08908 whole entry): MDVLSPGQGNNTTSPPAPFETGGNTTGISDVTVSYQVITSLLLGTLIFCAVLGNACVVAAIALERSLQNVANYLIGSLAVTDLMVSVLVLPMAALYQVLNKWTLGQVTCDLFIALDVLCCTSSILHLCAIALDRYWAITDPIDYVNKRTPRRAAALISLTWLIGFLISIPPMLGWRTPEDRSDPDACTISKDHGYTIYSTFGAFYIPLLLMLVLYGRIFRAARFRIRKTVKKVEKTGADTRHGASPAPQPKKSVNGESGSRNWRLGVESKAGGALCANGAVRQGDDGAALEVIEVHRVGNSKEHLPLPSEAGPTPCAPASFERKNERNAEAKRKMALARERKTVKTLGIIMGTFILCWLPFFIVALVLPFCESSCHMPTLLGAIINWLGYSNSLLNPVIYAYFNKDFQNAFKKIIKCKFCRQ
Chain of Cannabinoid CB1 (P21554 whole entry): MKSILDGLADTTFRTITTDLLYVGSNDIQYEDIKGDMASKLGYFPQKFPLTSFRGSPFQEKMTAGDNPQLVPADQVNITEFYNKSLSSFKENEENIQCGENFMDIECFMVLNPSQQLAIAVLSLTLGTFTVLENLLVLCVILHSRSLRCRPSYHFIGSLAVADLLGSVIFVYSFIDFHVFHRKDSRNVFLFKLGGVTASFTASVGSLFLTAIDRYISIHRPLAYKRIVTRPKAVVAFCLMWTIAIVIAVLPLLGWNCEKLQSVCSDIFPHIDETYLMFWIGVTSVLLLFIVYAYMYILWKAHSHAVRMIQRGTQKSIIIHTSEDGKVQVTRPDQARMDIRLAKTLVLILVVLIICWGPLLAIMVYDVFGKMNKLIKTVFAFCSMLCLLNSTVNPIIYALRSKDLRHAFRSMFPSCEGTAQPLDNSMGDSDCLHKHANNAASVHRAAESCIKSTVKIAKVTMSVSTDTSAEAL
Chain of Adrenergic α1A (P43140 whole entry, the tested form may be a part): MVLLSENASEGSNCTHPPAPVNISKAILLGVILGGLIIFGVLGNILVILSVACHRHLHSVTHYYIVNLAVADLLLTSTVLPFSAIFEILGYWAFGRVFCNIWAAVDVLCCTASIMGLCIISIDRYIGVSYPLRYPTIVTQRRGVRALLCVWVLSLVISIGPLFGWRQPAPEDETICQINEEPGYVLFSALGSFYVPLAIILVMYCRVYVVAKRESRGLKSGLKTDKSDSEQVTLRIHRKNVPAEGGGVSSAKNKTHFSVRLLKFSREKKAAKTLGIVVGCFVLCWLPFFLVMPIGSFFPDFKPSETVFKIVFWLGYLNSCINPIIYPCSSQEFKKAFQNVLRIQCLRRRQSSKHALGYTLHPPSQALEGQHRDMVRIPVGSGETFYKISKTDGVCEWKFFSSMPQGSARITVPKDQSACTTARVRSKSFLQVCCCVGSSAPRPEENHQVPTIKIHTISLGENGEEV
Chain of Cyclooxygenase COX-2 (P35354 18-604): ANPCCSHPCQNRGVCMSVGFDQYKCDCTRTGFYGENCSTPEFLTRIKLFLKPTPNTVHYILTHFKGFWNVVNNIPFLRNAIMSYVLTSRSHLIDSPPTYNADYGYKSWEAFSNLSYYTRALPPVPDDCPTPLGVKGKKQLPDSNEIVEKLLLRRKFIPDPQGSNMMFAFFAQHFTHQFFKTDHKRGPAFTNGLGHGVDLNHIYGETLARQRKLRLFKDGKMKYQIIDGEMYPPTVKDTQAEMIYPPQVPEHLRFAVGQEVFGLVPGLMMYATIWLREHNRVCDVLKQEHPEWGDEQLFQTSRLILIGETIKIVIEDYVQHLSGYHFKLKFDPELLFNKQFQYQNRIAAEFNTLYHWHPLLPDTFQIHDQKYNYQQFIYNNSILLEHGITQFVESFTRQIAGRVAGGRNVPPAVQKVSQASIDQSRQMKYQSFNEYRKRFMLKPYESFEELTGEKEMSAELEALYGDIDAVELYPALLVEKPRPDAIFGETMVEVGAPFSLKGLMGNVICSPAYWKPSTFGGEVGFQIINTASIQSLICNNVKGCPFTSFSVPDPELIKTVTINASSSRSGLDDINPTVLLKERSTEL

Consider `NC/C=C(\F)CS(=O)(=O)c1ccccc1` [PXS-4787], for which the inhibition at 10 µM against Muscarinic M1 (10 µM) is 56%; at Neuropeptide Y Y2, 0%; on Cannabinoid CB1 (10 µM), 8%; in data set [1] (10 µM), 6%; in data set [2] (10 µM), 6%; against Opiate µ(OP3, MOP) (10 µM), 3%. In addition, the figures for the inhibition at 10 µM (in data set [3] (10 µM); against Muscarinic M3 (10 µM); at Adrenergic α1A (10 µM)) were 0%, 27% and 1%, respectively. In addition, in the data set with keratinocytes, the “Log2 fold change LOC101927136” value is listed as 3.918. Also, in the data set with keratinocytes, the “Log2 fold change TMOD1” value is 4.799. Moreover, the composite skin score entry in [4] ([…] cream topically once daily) is recorded as “Reduced”. The “immunohistochemistry COL1 score” value in data set [4] ([…] cream topically once daily) is listed as “decreas ed”. Besides, in data set [4] ([…] cream topically once daily), the “immunohistochemistry LOX score” value is on record as “Decreased”. Also, the “% Inh.” value with Purinergic P2X stood at 8%. Besides, the “Surgeon score dose response” value in [5] (0.5 %) is 16 and 20 and 14; in data set [5] (3%), 11 and 10 and 12 and 9. Further, the “Lox enzyme activity in scars” value in [5] (3% cream, 24 hours after final application) was “significantly inhibited”. Also, the “scar appearance rank (0 best to 3 worst) by blinded plastic surgeons” value in data set [5] (3% cream, treatment commenced at 3 weeks post-injury, analysed at 12 weeks) is recorded as “significant improvements in scar appearance”. For the same compound, the “LOX activity S/N” value in data set [5] (PXS-4787, individual samples) is 2.7 and 1.5 and 1.8 and 1.4 and 1.3.
For the compound `NC/C=C(\F)C(F)(F)S(=O)(=O)c1ccccc1` [PXS-6302], the inhibition at 30 µM on Muscarinic M1 (read-out: % Inh.) amounted to 13%; at Cannabinoid CB1 (read-out: % Inh.), 4%; in data set [1] (read-out: % Inh.) it was 6%; in data set [2] (read-out: % Inh.), 50%; at Opiate µ(OP3, MOP) (read-out: % Inh.), 12%; in [3] (read-out: % Inh.), 3%. For the same compound, the inhibition at 30 µM at Muscarinic M3 (read-out: % Inh.) was 15%; against Cyclooxygenase COX-2 it was 21%; at Adrenergic α1A (read-out: % Inh.), 3%. Further, the “PAMPA permeability (class in words)” value in “PAMPA permeability” was “High and high permeability”. In addition, the Papp in the data set “PAMPA permeability” (GIT PAMPA at pH 7.4, read-out: PAMPA permeability, Average of P) is 1680 nm/s. Moreover, in data set [4] (Bleo + PXS-6302, individual animals), the “Skin LOX activity” value is 0.8656 and 1.07 and 1.02 and 1.046 and 0.9944 and 1.027 and 1.022 and 1.017 and 1.088. In data set [4] (PXS-6302, individual animals), the Skin thickness is 0.34 mm and 0.36 mm and 0.41 mm and 0.33 mm and 0.39 mm and 0.38 mm and 0.4 mm. Further, the composite skin score entry in data set [4] ([…] cream topically once daily) is reported as “significantly reduced”. Also, in [4] ([…] cream topically once daily), the “immunohistochemistry COL1 score” value is given as “significantly reduced”. In addition, the “immunohistochemistry LOX score” value in data set [4] ([…] cream topically once daily) is given as “significantly reduced”. The “LOX activity in skin” value in data set [4] (setting [6]) is reported as “significant reduction”. For the same compound, in [4] (setting [6]), the “fibrosis as assessed by skin thickness” value was “significantly reduced”. Moreover, in data set [4] (setting [6]), the hydroxyproline content result is reported as “reduced”. In addition, the “immature crosslinking (DHLNL and HLNL)” value in data set [4] (setting [6]) is given as “reduced”. In [5] (3%), the “Excision injury scar scores (average score of all surgeons for each wound/tx group)” value was 9 and 6.667 and 6 and 5.667 and 5 and 6.333 and 9.667 and 9.333. Moreover, in [5] (3% cream once daily, 12 weeks), the “scar score 1–10 by blinded plastic surgeons” value is “significantly higher scores”. Moreover, the “LOX activity in scar tissue” value in [5] (24 h after the final dose, once daily cream) was “significantly reduced”. Besides, in data set [5] (porcine scar 24 h after final daily application, individual samples), the “S/N ration LOX activity (Fig. 8A)” value is 1.073 and 0.9572 and 1.114 and 1.845 and 1.506.
